Several values for one entry are separate records, joined by “and”; a condition that tells them apart may be missing. Identical values can stand only once. Counter-ions that a name gives are not always drawn.
Assays:
DPP-IV = target: T1, DPP-IV (Homo sapiens, UniProt P27487); test: In vitro assay for dipeptidyl peptidase inhibition; type: biochemical; conditions: hydrochloride salts; Gly-Pro-4-methoxy B naphthylamide substrate; overnight at 37° C.; read-out: IC50 (concentration of test compound required for 50% inhibition)
T1 construct: purchased Enzyme Systems Products SPE-01
Protocol: 150 μL of an enzyme-substrate solution was pipetted into microtiter wells of a polystyrene 96-well plate, and maintained at 4° C. The enzyme-substrate solution comprised 50 μM Gly-Pro-4-methoxy B naphthylamide HCl in 50 mM Tris assay buffer pH 7.3 containing 0.1M sodium chloride, 0.1% (v/v) Triton and 50 μU/mL DPP-IV (Enzyme Systems Products Cat#SPE-01, DPP-IV 5 mU/mL stock). 5 μL/well of compounds of Formula (I) were added, bringing the final compound of Formula (I) concentrations to 3 μM-10 nM per well.
Controls. Enzyme was omitted from four (4) wells, as a reagent blank. 5 μL of 3 mM Diprotin A was added to four wells as a positive quality control, providing a final Diprotin A concentration of 100 μM. To measure total enzyme activity (i.e. a negative control), without the influence of any compounds of Formula (I), 5 μL of distilled water was added to four wells.
The entire assay was incubated overnight (about 14-18 hours) at 37° C.

[1] = Madin-Darby Canine Kidney Cells (MDCK) permeability assay; type: in vitro ADME; conditions: dog, apparent permeability, apical to basolateral
Protocol: Drug permeability through MDCK cell monolayers is known to be a useful tool as a model for cellular barrier for assessing intestinal epithelial drug transport, and thus to estimate intestinal permeability for orally administered compounds.
In this assay, monolayer cultures, suitable for investigation of compound permeability, were grown on Falcon/BD 96-well membrane inserts. The monolayers were maintained at 37° C. in a 5% CO2 atmosphere at 95% relative humidity until confluent. Apparent permeabilities of test compounds were determined in duplicate at a single concentration of 2 μM in the apical to basolateral direction. The transport investigations were initiated by the addition of the compound (2 μM of a solution containing 0.4% DMSO) to the apical compartment and the plates were maintained under culture conditions during the course of the experiment. The basolateral compartments following 2.5 hours of exposure and the final apical compartments were collected and analyzed for compound content by LC-MS/MS. The apparent permeability of each compound was then calculated.
Compounds of the present invention, such as those of Examples 18 and 27 were used in this assay. By comparison, comparison DPP-IV inhibitor compounds, which are generically disclosed in International Application WO02/076450, were also synthesized, and then used in this assay.

KK/H1J mice = test: In vivo assay for glucose lowering (oral glucose tolerance test); conditions: fasted KK/H1J mice
Text: The glucose lowering effects of DPP-IV inhibitors for some compounds of the present invention were exemplified in 4-6 week old KK/H1J mice (Jackson Labs) in the context of an oral glucose tolerance test. Oral glucose tolerance tests (“OGTT”) have been in use in humans since, at least, the 1930s, Pincus et al., Am. J. Med. Sci, 188: 782 (1934), and are routinely used in the diagnosis of human diabetes, though not to evaluate the efficacy of therapeutic agents in patients. KK mice have been used to evaluate glitazones (Fujita et al. Diabetes 32:804-810 (1983); Fujiwara et al., Diabetes 37: 1549-48 (1988); Izumi et al. Biopharm Drug. Dispos. 18:247-257 (1997)), metformin (Reddi et al. Diabet. Metabl. 19:44-51 (1993)), glucosidase inhibitors (Hamada et al. Jap. Pharmacol. Ther. 17:17-28 (1988); Matsuo et al. Am. J. Clin. Nutr. 55:314S-317S (1992)), and the extra-pancreatic effects of sulfonylureas (Kameda et al Arzneim. Forsch./Drug Res. 32:39044 (1982); Muller et al. Horm. Metabl. Res. 28:469-487 (1996)).
KK mice are derived from an inbred line first established by Kondo et al. (Kondo et al. Bull. Exp. Anim. 6:107-112 (1957)).
The mice were fasted overnight (about 14-18 hours), but allowed free access to water. […] The blood samples were centrifuged, the plasma collected and analyzed for glucose content on a Roche-Hitachi 912 glucose analyzer. […]

T1 sequence (P27487 whole entry, species assumed): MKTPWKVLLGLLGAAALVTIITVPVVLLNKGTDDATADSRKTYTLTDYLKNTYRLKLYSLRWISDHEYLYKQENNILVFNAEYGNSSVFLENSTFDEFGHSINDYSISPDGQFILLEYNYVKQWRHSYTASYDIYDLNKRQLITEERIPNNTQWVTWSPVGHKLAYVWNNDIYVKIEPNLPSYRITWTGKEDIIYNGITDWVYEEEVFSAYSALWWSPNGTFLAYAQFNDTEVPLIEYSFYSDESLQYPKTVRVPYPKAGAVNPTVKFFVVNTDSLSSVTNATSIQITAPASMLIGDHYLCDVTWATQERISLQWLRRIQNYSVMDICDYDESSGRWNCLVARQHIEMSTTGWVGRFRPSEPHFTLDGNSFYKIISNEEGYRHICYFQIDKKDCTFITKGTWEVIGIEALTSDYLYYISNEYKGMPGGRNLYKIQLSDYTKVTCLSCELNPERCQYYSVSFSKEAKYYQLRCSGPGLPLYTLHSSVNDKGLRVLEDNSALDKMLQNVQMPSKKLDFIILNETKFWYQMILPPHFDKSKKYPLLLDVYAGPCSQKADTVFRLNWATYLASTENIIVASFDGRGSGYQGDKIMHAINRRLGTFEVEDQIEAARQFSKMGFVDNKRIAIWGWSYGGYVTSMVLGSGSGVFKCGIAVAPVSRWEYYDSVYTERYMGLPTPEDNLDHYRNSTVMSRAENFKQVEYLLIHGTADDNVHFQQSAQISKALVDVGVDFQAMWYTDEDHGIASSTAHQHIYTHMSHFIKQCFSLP

Row | SMILES | IC50 (DPP-IV) | Papp A→B at 2.5 h, 2 μM [1] [×10⁻⁶ cm/s] | further results
1 | Nc1nccnc1C(=O)N[C@H]1CC[C@H]([C@H](N)C(=O)N2CCSC2)CC1 (as salt: hydrochloride) [Example 35, (S)-3-amino-pyrazine-2-carboxylic acid [trans-4-(1-amino-2-oxo-2-thiazolidin-3-yl-ethyl)-cyclohexyl]-amide] |  |  | melting point: 133.4 to 134.7 °C
2 | Nc1nccnc1C(=O)N[C@H]1CC[C@H]([C@H](N)C(=O)N2CCCC2)CC1 [Example 18, (S)-3-amino-pyrazine-2-carboxylic acid [trans-4-(1-Amino-2-oxo-2-pyrrolidin-1-yl-ethyl)-cyclohexyl]-amide] | ≤ 100 nM | 4.8 | 
3 | N[C@H](C(=O)N1CCCC1)[C@H]1CC[C@H](N2C(=O)c3ccncc3C2=O)CC1 [Example 23, 2-[trans-4-((1S)-1-amino-2-oxo-2-pyrrolidin-1-yl-ethyl)-cyclohexyl]-pyrrolo[3,4-c]pyridine-1,3-dione] | 18 nM and ≤ 100 nM |  | percent (%) inhibition of glucose excursion (KK/H1J mice; oral dose level of 5 mg/kg, plasma glucose at t=45 minutes): about 65%
4 | N[C@H](C(=O)N1CCCC1)[C@H]1CC[C@H](NC(=O)[C@@H]2C[C@@H](O)CN2C(=O)NCc2ccccc2)CC1 [Example 26, (2S,4R)-4-hydroxy-pyrrolidine-1,2-dicarboxylic acid 2-{[trans-4-((1S)-1-Amino-2-oxo-2-pyrrolidin-1-yl-ethyl)-cyclohexyl]-amide}1-benzylamide] | ≤ 100 nM |  | glucose lowering / inhibition of glucose excursion (in words) (KK/H1J mice; oral dosing, dose not stated): did not demonstrate inhibition
5 | N[C@H](C(=O)N1CCCC1)[C@H]1CC[C@H](NC(=O)c2nccnc2NCCc2ccccc2)CC1 [Example 27] | ≤ 100 nM | 6.2 | 

More lines, main results first:

Row | IC50 (DPP-IV) | Papp A→B at 2.5 h, 2 μM [1] [×10⁻⁶ cm/s] | SMILES | further results
6 |  | 1.1 | N[C@H](C(=O)N1CCCC1)[C@H]1CC[C@H](NC(=O)c2cnccn2)CC1 [reference compound] | 
7 |  | 0.7 | Cc1cnc(C(=O)N[C@H]2CC[C@H]([C@H](N)C(=O)N3CCCC3)CC2)cn1 [reference compound] | 
